Measurements published in patent US20030065039A1, “Biologically active 1,3-bis-aromatic-prop-2-en-1-ones, 1,3-bis-aromatic-propan-1-ones, and 1,3-bis-aromatic-prop-2-yn-1-ones” (Statens Serum Institute, priority 1997, published 2003).
Where two headings read alike, the source gives them in different places.

Assays:
Assay type in all cases: cell-based
[1] = system: Leishmania promastigotes; test: Leishmania promastigotes Assay; settings: promastigotes, 3H-thymidine uptake, read-out: Leishmania IC50 ± SD
Outline: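 L. major (WHO Iran vaccine strain) and L. donovani MHOM/KE/85/NLB 274 promastigotes (3×10^6/ml, day 3 and 6 cultures) exposed to compound 2 h at 26 °C, then 3H-thymidine 18 h; incorporation counted by scintillation. Microscopic counts and flagellar motility also assessed.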

[2] = system: human lymphocytes; test: Lymphocyte Proliferation Assay; settings: PHA provoked proliferation of human lymphocytes, read-out: Lymphocytes IC50 ± SD
Outline: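 Ficoll-isolated human blood mononuclear cells (0.63×10^5/ml) in RPMI 1640 with 5% FCS were cultured in triplicate with test compound and PHA or PPD for 3 or 7 days. Proliferation measured by ^3H-thymidine incorporation over the final 24 h; triplicate median recorded.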

[3] = system: Plasmodium falciparum; test: Plasmodium falciparum Assay; settings: 3-H-hypoxanthine incorporation, 48 hours, read-out: Plasmodium IC50 ± SD
Outline: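 Parasitized erythrocytes (~1% parasitemia, 5×10^8/ml) cultured 48 h in RPMI with test compound, with 3H-hypoxanthine added for the last 24 h. Growth inhibition read as 3H-hypoxanthine incorporation into parasite DNA by liquid scintillation; uninfected and untreated infected cultures run in parallel.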

[4] = system: TNF-α; test: TNF-α production by human peripheral blood mononuclear cells, culture supernatant (ELISA); settings: for inhibition at 12.5 µg/mL / inhibition at 1 µg/mL / inhibition at 5 µg/mL / inhibition at 10 µg/mL / inhibition at 20 µg/mL / inhibition at 1.25 µg/mL / inhibition at 6.25 µg/mL: Homo sapiens, PBMC
Experimental: Cells: Peripheral blood mononuclear cells obtained from healthy individuals. The cells were separated by a conventional method lymphoprep) and suspended in RMPI 1640 containing 5% human serum.
Stimulation of cytokine-release from human mononuclear cells: Human peripheral blood mononuclear cells from Danish donors were suspended in 1-10% (v/v) human serum in RPMI 1640 and adjusted to 2×10^6 cells per ml. 0.1 ml volumes were then dispensed into wells of 96-well microtiter plates. […] In some experiments cells were preincubated with drugs for 2 hrs before addition of stimulation antigens. The cultures were incubated overnight for TNF-α and IL-6 assays.
Supernatants were collected and assayed for TNF-α, IL-1α and IL-6 by ELISA procedures (Jakobsen et al., 1993, Fomsgaard et al., 1988, Hansen et al., 1991) with the following modifications. ELISA Maxisorp plates (Nunc, Roskilde, Denmark) were coated for 24 hrs at 4 C with 100 μl per well of 2.5 μg/ml rabbit polyclonal IgG to human recombinant TNF, IL-1α or IL-6 in 100 mM sodiumhydrogencarbonate. Non-attached sites were blocked for 1 h by 200 μl per well of 2% human serum slbumin in PBS (1 h at 37° C.), and the wells were washed 4 times in 2.5% NaCl, 0.1% Tween 20 (Merck, Darmstadt, Germany). This washing procedure was done after each of the following incubating steps:
1) 100 μl culture supernatants made to 50% (v/v) in incubation buffer (4% (v/v) normal rabbit serum, DAKO code X902), 1% polyethylene glycol (MW 6,000), 2.5% NaCl, 0.1% Tween 20 in phosphate buffered saline (PBS) were incubated 2 hrs at 37° C., dilutions of native as well as recombinant cytokine standards in the same incubation buffer were asssayed in parallel with the tested supernatants,
2) 100 μl per well of biotinilated rabbit antibodies to recombinant TNF-α, IL-1α or IL-6 (1.5 μg/ml in 0.5% human serum albumin, 0.1% Tween 20 in PBS) were added at 37° for 2 hrs,
3) […] per well of a 1:1000 dilution of streptavidin-peroxidase (Amersham, UK), at room temperature for 30 min.
Enzyme activities were quantitated after addition of 100 μl per well of 0.67 mg/ml 1,2-phenyldiamine hydrochloride (DAKO) dissolved in 100 mM citric acid-phosphate buffer, pH 5.0 containing 0.015% (v/v) H2O2. The reactions were stopped by adding 50 μl per well of 2.5 M H2SO4, and the optical densities are measured in an ELISA scanner at 490 nm against a test reference at 620 nm.
Assay: The compounds were prepared as stock solution at a concentration of 1 mg/ml in medium containing 10% DMSO. The dilutions were made in medium. The cells were stimulated with either SPAG (a malaria antigen TNF-inducer) or bacterial LPS. The supernatant of cell cultures were assayed for TNF-α using a commercial ELISA kit.

[5] = Experiment 1, LPS, 12.5 μg/ml, Control 1.17
[6] = Experiment 1, LPS, 25 μg/ml, Control 1.17
[7] = Experiment 1, LPS, 50 μg/ml, Control 1.17
[8] = Experiment 1, LPS, 100 μg/ml, Control 1.17
[9] = Experiment 1, SPAG, 12.5 μg/ml, Control 3.73
[10] = Experiment 1, SPAG, 25 μg/ml, Control 3.73
[11] = Experiment 1, SPAG, 50 μg/ml, Control 3.73
[12] = Experiment 1, SPAG, 100 μg/ml, Control 3.73
[13] = Experiment 2, LPS, 1.562 μg/ml, Control 2.06
[14] = Experiment 2, LPS, 3.125 μg/ml, Control 2.06
[15] = Experiment 2, LPS, 6.25 μg/ml, Control 2.06
[16] = Experiment 2, LPS, 12.5 μg/ml, Control 2.06
[17] = Experiment 2, SPAG, 1.562 μg/ml, Control 2.28
[18] = Experiment 2, SPAG, 3.125 μg/ml, Control 2.28
[19] = Experiment 2, SPAG, 6.25 μg/ml, Control 2.28
[20] = Experiment 2, SPAG, 12.5 μg/ml, Control 2.28

Row | SMILES | IC50 ([1]; Leishmania) [µM] | IC50 ([3]; Plasmodium falciparum) [µM] | IC50 ([2]; Lymphocyte) [µM] | TNF-α production (OD values) [4, 5] [OD] | TNF-α production (OD values) [4, 6] [OD] | TNF-α production (OD values) [4, 7] [OD] | TNF-α production (OD values) [4, 8] [OD] | TNF-α production (OD values) [4, 9] [OD] | TNF-α production (OD values) [4, 10] [OD] | TNF-α production (OD values) [4, 11] [OD] | TNF-α production (OD values) [4, 12] [OD] | TNF-α production (OD values) [4, 13] [OD] | TNF-α production (OD values) [4, 14] [OD] | TNF-α production (OD values) [4, 15] [OD] | TNF-α production (OD values) [4, 16] [OD] | TNF-α production (OD values) [4, 17] [OD] | TNF-α production (OD values) [4, 18] [OD] | TNF-α production (OD values) [4, 19] [OD] | TNF-α production (OD values) [4, 20] [OD] | also measured
1 | C=CC(C)(C)c1cc(/C=C/C(=O)c2ccc(O)cc2)c(OC)cc1O [Licochalcone A] | – | – | – | – | – | – | – | – | – | – | – | – | – | – | – | – | – | – | – | IC50 [1]: 13 ± 1 µM; IC50 [2]: 48 ± 5 µM; IC50 [3]: 5.6 µM; percentage inhibition of TNF-α production ([4]; Table 1, LPS 1:1000, drug 1 μg/ml): 0%; percentage inhibition of TNF-α production ([4]; Table 1, LPS 1:1000, drug 5 μg/ml): 0%; percentage inhibition of TNF-α production ([4]; Table 1, LPS 1:1000, drug 10 μg/ml): 40%; percentage inhibition of TNF-α production ([4]; Table 1, LPS 1:1000, drug 20 μg/ml, preincubated 2 hrs): 81%; percentage inhibition of TNF-α production ([4]; Table 1, SPAG 1:12.5, drug 1 μg/ml): 0%; percentage inhibition of TNF-α production ([4]; Table 1, SPAG 1:12.5, drug 5 μg/ml): 13%; percentage inhibition of TNF-α production ([4]; Table 1, SPAG 1:12.5, drug 10 μg/ml): 44%; percentage inhibition of TNF-α production ([4]; Table 1, SPAG 1:12.5, drug 20 μg/ml, preincubated 2 hrs): 97%; percentage inhibition of TNF-α production ([4]; Table 2, LPS 1:1000, drug 1.25 μg/ml): 4%; percentage inhibition of TNF-α production ([4]; Table 2, LPS 1:1000, drug 6.25 μg/ml): 3%; percentage inhibition of TNF-α production ([4]; Table 2, LPS 1:1000, drug 12.5 μg/ml): 38%; percentage inhibition of TNF-α production ([4]; Table 2, LPS 1:1000, drug 20 μg/ml, preincubated 2 hours): 54%; percentage inhibition of TNF-α production ([4]; Table 2, SPAG 1:12.5, drug 1.25 μg/ml): 54%; percentage inhibition of TNF-α production ([4]; Table 2, SPAG 1:12.5, drug 6.25 μg/ml): 82%; percentage inhibition of TNF-α production ([4]; Table 2, SPAG 1:12.5, drug 12.5 μg/ml): 94%; percentage inhibition of TNF-α production ([4]; Table 2, SPAG 1:12.5, drug 20 μg/ml, preincubated 2 hours): 100%
2 | C=CCOc1ccc(C(=O)/C=C/c2cc(OC)cc(OC)c2)cc1 [SBC-35ma, 3,5-dimethoxy-4′-allyloxychalcone] | 27 ± 2 | – | 25 ± 2 | – | – | – | – | – | – | – | – | – | – | – | – | – | – | – | – | inhibition at 1 µg/mL ([4]; Table 1, LPS 1:1000, drug 1 μg/ml, read-out: percentage inhibition of TNF-α production): 0%; inhibition at 5 µg/mL ([4]; Table 1, LPS 1:1000, drug 5 μg/ml, read-out: percentage inhibition of TNF-α production): 1%; inhibition at 10 µg/mL ([4]; Table 1, LPS 1:1000, drug 10 μg/ml, read-out: percentage inhibition of TNF-α production): 56%; inhibition at 20 µg/mL ([4]; Table 1, LPS 1:1000, drug 20 μg/ml, preincubated 2 hrs, read-out: percentage inhibition of TNF-α production): 73%; inhibition at 1 µg/mL ([4]; Table 1, SPAG 1:12.5, drug 1 μg/ml, read-out: percentage inhibition of TNF-α production): 0%; inhibition at 5 µg/mL ([4]; Table 1, SPAG 1:12.5, drug 5 μg/ml, read-out: percentage inhibition of TNF-α production): 0%; inhibition at 10 µg/mL ([4]; Table 1, SPAG 1:12.5, drug 10 μg/ml, read-out: percentage inhibition of TNF-α production): 55%; inhibition at 20 µg/mL ([4]; Table 1, SPAG 1:12.5, drug 20 μg/ml, preincubated 2 hrs, read-out: percentage inhibition of TNF-α production): 100%; inhibition at 1.25 µg/mL ([4]; Table 2, LPS 1:1000, drug 1.25 μg/ml, read-out: percentage inhibition of TNF-α production): 2%; inhibition at 6.25 µg/mL ([4]; Table 2, LPS 1:1000, drug 6.25 μg/ml, read-out: percentage inhibition of TNF-α production): 23%; inhibition at 12.5 µg/mL ([4]; Table 2, LPS 1:1000, drug 12.5 μg/ml, read-out: percentage inhibition of TNF-α production): 28%; inhibition at 20 µg/mL ([4]; Table 2, LPS 1:1000, drug 20 μg/ml, preincubated 2 hours, read-out: percentage inhibition of TNF-α production): 33%; inhibition at 1.25 µg/mL ([4]; Table 2, SPAG 1:12.5, drug 1.25 μg/ml, read-out: percentage inhibition of TNF-α production): 87%; inhibition at 6.25 µg/mL ([4]; Table 2, SPAG 1:12.5, drug 6.25 μg/ml, read-out: percentage inhibition of TNF-α production): 99%; inhibition at 12.5 µg/mL ([4]; Table 2, SPAG 1:12.5, drug 12.5 μg/ml, read-out: percentage inhibition of TNF-α production): 100%; inhibition at 20 µg/mL ([4]; Table 2, SPAG 1:12.5, drug 20 μg/ml, preincubated 2 hours, read-out: percentage inhibition of TNF-α production): 100%

More lines, main results first:

Row | IC50 ([1]; Leishmania) [µM] | IC50 ([3]; Plasmodium falciparum) [µM] | SMILES | IC50 ([2]; Lymphocyte) [µM] | TNF-α production (OD values) [4, 5] [OD] | TNF-α production (OD values) [4, 6] [OD] | TNF-α production (OD values) [4, 7] [OD] | TNF-α production (OD values) [4, 8] [OD] | TNF-α production (OD values) [4, 9] [OD] | TNF-α production (OD values) [4, 10] [OD] | TNF-α production (OD values) [4, 11] [OD] | TNF-α production (OD values) [4, 12] [OD] | TNF-α production (OD values) [4, 13] [OD] | TNF-α production (OD values) [4, 14] [OD] | TNF-α production (OD values) [4, 15] [OD] | TNF-α production (OD values) [4, 16] [OD] | TNF-α production (OD values) [4, 17] [OD] | TNF-α production (OD values) [4, 18] [OD] | TNF-α production (OD values) [4, 19] [OD] | TNF-α production (OD values) [4, 20] [OD] | also measured
3 | 3.5 ± 0.8 | 8.7 | COc1cc(/C=C/C(=O)c2ccccc2F)cc(OC)c1 [PH135, 2′-fluoro-3,5-dimethoxychalcone] | 6 ± 0.4 | 0.01 | 0.01 | 0.01 | 0.02 | 0.02 | 0.01 | 0.01 | 0.01 | 0.89 | 0.49 | 0.09 | 0.04 | 0.93 | 0.04 | 0.03 | 0.01 | –
4 | 31 ± 2 | 15 | COc1cc(/C=C/C(=O)c2ccc(C3CCCCC3)cc2)cc(OC)c1 [PH104, 3,5-dimethoxy-4′-cyclohexylchalcone] | 39 ± 2 | 1.15 | 0.59 | 0.41 | 0.31 | 0.93 | 0.13 | 0.03 | 0.01 | 1.54 | 1.41 | 1.08 | 0.91 | 2.47 | 2.44 | 1.50 | 0.43 | inhibition at 12.5 µg/mL ([4]; concentration of 12.5 μg/ml, read-out: inhibition of the production of TNF-α): ~75%; inhibition of the production of TNF-α ([4]; at higher concentrations than 12.5 μg/ml): greater than 75%
5 | 16 ± 1 | – | COc1cc(/C=C/C(=O)c2ccc([N+](=O)[O-])cc2)cc(OC)c1 [PH105, 4′-nitro-3,5-dimethoxychalcone] | 20 ± 1 | 1.07 | 1.13 | 1.69 | 0.99 | 1.94 | 2.00 | 4.00 | 2.3 | – | – | – | – | – | – | – | – | inhibitory effect on TNF-α production [4]: no or very little inhibitory effect
